Eleven molecules from ChEMBL document CHEMBL1201862, “PubChem BioAssay data set” (2004) can be followed below.

Common to all, as to test: growth of human tumour cells (NCI), 48 h
In test [1] the test system is OVCAR-8.
The test system of test [2] is UACC-257.
The test system of test [3] is SNB-19.
Test [4] has as its system COLO 205.
The subject of test [5] is RPMI-8226.
The test system of test [6] is SK-MEL-28.
Test [7] has as its system HCT-15.
The subject of test [8] is K562.
For test [9], the system named is NCI-H226.
Test [10] relates to SF-268.
Test [11] relates to TK-10.
The subject of test [12] is MOLT-4.
Test [13] deals with HCT-116.
The subject of test [14] is NCI-H460.
Test [15] has as its system CCRF-CEM.
Test [16] relates to OVCAR-5.
Test [17] has as its system HOP-62.
Test [18] relates to NCI-H23.
Test [19] relates to Malme-3M.
Test [20] concerns CAKI-1.

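Results reflect a 48-hour exposure of cells in 96-well plates to compound at five concentrations. The concentration for 50% growth inhibition is given as GI50.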 The source made the active and inactive calls. No stated cut-off is given here; in the data, active = GI50 up to about 1.1 µM and inactive = higher.

Turning to `COc1cc(C2C(=O)C(Cl)N2Nc2nc(C)cc(O)n2)cc(OC)c1OC` (stereo not drawn), the GI50 in [1] was 17.1 µM (inactive); in test [2], 22.5 µM (inactive); in test [3], 30.4 µM (inactive); in test [4], > 10 µM (inactive); in test [5] it was > 10 µM (inactive); in test [6], 17 µM (inactive). Moreover, the GI50 is 11.5 µM in [7]; 9.55 µM (inactive) in [8]; 22.1 µM (inactive) in test [9]; 7.01 µM (inactive) in [10]; 24.3 µM (inactive) in test [11]; 10.6 µM (inactive) in test [12]. In addition, the GI50 was 16.2 µM (inactive) in test [13]; 9.35 µM (inactive) in test [14]; < 0.01 µM (active) in test [15]; 33 µM (inactive) in test [16]; 7.21 µM (inactive) in test [17]; 15.4 µM (inactive) in test [18].
In the case of `CC12CCCCC1C(=O)C2(Cl)Cl` (stereo not drawn), the GI50 is 2.04 µM (inactive) in test [1]; 2.06 µM (inactive) in test [2]; 3.31 µM (inactive) in test [3]; 1.31 µM (inactive) in [5]; 1.8 µM (inactive) in test [6]; 3.35 µM in test [7]. For the same molecule, the GI50 is 1.83 µM (inactive) in test [8]; 2.7 µM (inactive) in test [10]; 3.85 µM (inactive) in test [11]; 1.84 µM (inactive) in [12]; 1.69 µM (inactive) in [13]; 1.4 µM (inactive) in [19]. The GI50 in test [14] is 2.28 µM (inactive); in test [15] it was 1.42 µM (inactive); in test [16], 2.56 µM (inactive); in test [20], 2.15 µM (inactive); in [17] it was 1.6 µM (inactive); in test [18] it was 2.39 µM (inactive).
`COc1ccc(C(CC(=O)c2ccc(O)cc2)C(C(=O)c2ccc(O)cc2)C(c2ccc(OC)cc2)C2C(=O)NC(=S)NC2=O)cc1` (stereo not drawn): the GI50 in [1] was 24.8 µM (inactive); in test [2], 17.5 µM (inactive); in [3], 21.8 µM (inactive); in test [4], 16 µM (inactive); in test [5] it was 22.6 µM (inactive); in [6], 16.2 µM (inactive). Besides, the GI50 in [7] was 21.2 µM; in test [8], 30.5 µM (inactive); in test [9] it was 18.7 µM (inactive); in test [10], 15.7 µM (inactive); in test [11], 29.3 µM (inactive); in test [12] it was 37.7 µM (inactive). Also, the GI50 is 16.8 µM (inactive) in test [13]; 18.1 µM (inactive) in test [14]; 11.1 µM (inactive) in test [15]; 20.7 µM (inactive) in [16]; 26.1 µM (inactive) in test [17].
As to `Cc1ccc(CCC(=O)C(=O)O)s1`, the GI50 in test [1], in test [2], in [3], in test [4], in [5] and in test [6] was > 100 µM (inactive) in each case. Moreover, the GI50 in [7] is above 100 µM; in test [8], > 100 µM (inactive); in test [10], > 100 µM (inactive); in [11], 78.7 µM (inactive); in test [12], > 100 µM (inactive); in test [13], 41 µM (inactive). For the same molecule, the GI50 was > 100 µM (inactive) in [19]; > 100 µM (inactive) in [14]; > 100 µM (inactive) in test [15]; > 100 µM (inactive) in test [16]; 30.9 µM (inactive) in [20]; > 100 µM (inactive) in test [17]. Besides, the GI50 in [18] was > 100 µM (inactive).
Turning to `NC1CCCCC1`, the GI50 was 397 µM (inactive) in test [1]; > 562 µM (inactive) in test [2]; 187 µM (inactive) in test [3]; > 56.2 µM (inactive) in test [4]; 369 µM (inactive) in [5]; 318 µM (inactive) in test [6]. The GI50 in test [7] was 470 µM; in test [8], 138 µM (inactive); in test [10], 508 µM (inactive); in test [12] it was 195 µM (inactive); in test [13], 193 µM (inactive); in test [19] it was > 562 µM (inactive). Moreover, the GI50 in test [14] was 216 µM (inactive); in [15], 260 µM (inactive); in test [16], 386 µM (inactive); in [17], 223 µM (inactive); in test [18] it was > 562 µM (inactive).
As for `O=C(N/N=C/C=C/c1ccccc1)[C@H](O)[C@@H](O)C(=O)N/N=C/C=C/c1ccccc1`, the GI50 in [1], in test [2], in test [3], in [4], in test [5] and in test [6] was > 100 µM (inactive) in each case. Moreover, the GI50 was above 100 µM in test [7]; > 100 µM (inactive) in test [8]; > 100 µM (inactive) in test [10]; > 100 µM (inactive) in test [11]; > 100 µM (inactive) in test [12]; > 100 µM (inactive) in [13]. In addition, the GI50 in test [19], in test [14], in test [15], in test [16] and in [18] was > 100 µM (inactive) each time.
In the case of `O=C1CCC(c2ccccc2)=NN1c1nsc2ccccc12`, the GI50 in test [1] was > 100 µM (inactive); in test [2] it was > 100 µM (inactive); in test [3], > 100 µM (inactive); in [4] it was > 100 µM (inactive); in test [5], 70.1 µM (inactive); in test [6] it was > 100 µM (inactive). Moreover, the GI50 was above 100 µM in test [7]; 74 µM (inactive) in test [8]; > 100 µM (inactive) in test [10]; > 100 µM (inactive) in test [11]; 60 µM (inactive) in test [12]; 99.3 µM (inactive) in [13]. Also, the GI50 in test [14] was 47.9 µM (inactive); in [15], 61.4 µM (inactive); in test [16] it was > 100 µM (inactive); in test [17], > 100 µM (inactive); in test [18] it was > 100 µM (inactive).
Consider `CC(SC(=S)N1CCOCC1)C(=O)Nc1nnc(-c2ccc(Cl)cc2)o1` (stereo not drawn), for which the GI50 in test [1] was 42.2 µM (inactive); in [2], 46.1 µM (inactive); in test [3], 40 µM (inactive); in test [4], 38.4 µM (inactive); in test [5], 23.2 µM (inactive); in [6], > 100 µM (inactive). For the same molecule, the GI50 in [7] was 20.7 µM; in test [9] it was 67.8 µM (inactive); in test [10], 44.3 µM (inactive); in test [11], 79.8 µM (inactive); in test [12] it was 16.1 µM (inactive); in test [13], 23.8 µM (inactive). The GI50 was > 100 µM (inactive) in test [19]; 35.2 µM (inactive) in [14]; < 0.01 µM (active) in test [15]; 48.6 µM (inactive) in [16]; 52 µM (inactive) in [17]; 50.2 µM (inactive) in [18].
Regarding `COc1cc([C@@H]2c3cc4c(cc3[C@@H](c3c(O)cc(O)c5c3O[C@H](c3ccc(O)c(O)c3)[C@@H](O)C5)[C@H]3COC(=O)[C@H]23)OCO4)cc(OC)c1O`, the GI50 in [1] was > 100 µM (inactive); in test [2], > 100 µM (inactive); in [3], > 100 µM (inactive); in test [4] it was > 100 µM (inactive); in test [5], 53 µM (inactive); in test [6], 89.1 µM (inactive). In addition, the GI50 in [7] was above 100 µM; in [8], 31.7 µM (inactive); in [10], > 100 µM (inactive); in [11] it was > 100 µM (inactive); in test [12], 44 µM (inactive); in [13] it was 72.8 µM (inactive). The GI50 was > 100 µM (inactive) in test [19]; > 100 µM (inactive) in [14]; 63.2 µM (inactive) in [15]; > 100 µM (inactive) in test [16]; > 100 µM (inactive) in [20]; > 100 µM (inactive) in test [17]. In test [18], the GI50 is > 100 µM (inactive).
For the molecule `Clc1ccc(-c2nnc(-c3nsc4ccccc34)o2)cc1`, the GI50 was 25.1 µM (inactive) in [1]; > 100 µM (inactive) in [2]; 30.8 µM (inactive) in [3]; 71.8 µM (inactive) in test [4]; 24.2 µM (inactive) in [5]; 33.3 µM (inactive) in test [6]. Further, the GI50 in test [7] is 47.8 µM; in [10] it was 18.5 µM (inactive); in [11], 25.2 µM (inactive); in [13] it was 18.2 µM (inactive); in [14] it was 23.3 µM (inactive); in test [16], 58.7 µM (inactive). Further, the GI50 in [17] was 13.8 µM (inactive); in test [18], 17.5 µM (inactive).
For the molecule `O=C(O)c1ccc(NS(=O)(=O)Cc2ccccc2)cc1`, the GI50 in [1], in test [2], in test [3], in test [4], in test [5] and in test [6] was > 100 µM (inactive) each time. The GI50 in [7] is above 100 µM; in [8], > 100 µM (inactive); in test [10], > 100 µM (inactive); in [11], > 100 µM (inactive); in test [12], > 100 µM (inactive); in test [13] it was > 100 µM (inactive). Further, the GI50 in test [19], in test [14], in test [15], in test [16], in test [20] and in test [17] was > 100 µM (inactive) in each case. The GI50 in test [18] was > 100 µM (inactive).
